Target: T1, Integrin alpha-4 (Homo sapiens, UniProt P13612)
T1 sequence (P13612 whole entry): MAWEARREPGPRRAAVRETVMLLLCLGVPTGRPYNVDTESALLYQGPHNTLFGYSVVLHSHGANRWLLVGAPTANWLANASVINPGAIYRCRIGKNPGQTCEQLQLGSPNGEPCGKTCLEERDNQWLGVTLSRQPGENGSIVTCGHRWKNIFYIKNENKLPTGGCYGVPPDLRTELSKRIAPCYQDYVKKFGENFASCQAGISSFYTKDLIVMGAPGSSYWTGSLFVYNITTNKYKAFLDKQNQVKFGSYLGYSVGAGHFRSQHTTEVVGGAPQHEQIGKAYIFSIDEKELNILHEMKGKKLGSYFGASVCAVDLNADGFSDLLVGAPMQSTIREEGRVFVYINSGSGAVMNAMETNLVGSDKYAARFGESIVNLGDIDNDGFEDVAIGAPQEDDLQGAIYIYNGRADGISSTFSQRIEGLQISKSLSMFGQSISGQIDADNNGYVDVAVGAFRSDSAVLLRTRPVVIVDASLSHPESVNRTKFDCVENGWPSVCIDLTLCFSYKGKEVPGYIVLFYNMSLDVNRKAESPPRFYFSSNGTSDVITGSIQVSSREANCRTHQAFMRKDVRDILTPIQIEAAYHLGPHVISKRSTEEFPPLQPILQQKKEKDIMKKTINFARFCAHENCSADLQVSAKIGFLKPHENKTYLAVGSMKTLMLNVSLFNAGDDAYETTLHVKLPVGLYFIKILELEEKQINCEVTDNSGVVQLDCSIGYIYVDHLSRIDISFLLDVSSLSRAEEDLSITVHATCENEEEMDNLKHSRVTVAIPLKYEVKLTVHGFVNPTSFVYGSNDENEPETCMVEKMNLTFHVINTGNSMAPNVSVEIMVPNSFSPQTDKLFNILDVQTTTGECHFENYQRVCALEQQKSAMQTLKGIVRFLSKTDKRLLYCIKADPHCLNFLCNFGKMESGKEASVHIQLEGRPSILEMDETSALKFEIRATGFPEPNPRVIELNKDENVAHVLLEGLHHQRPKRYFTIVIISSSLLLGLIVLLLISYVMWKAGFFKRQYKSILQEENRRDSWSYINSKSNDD
Assay: Inhibitory concentration against VLA-4 receptor using human VCAM-VLA-4 binding assay

| SMILES | IC50 |
| --- | --- |
| N[C@@H](Cc1ccc(O)cc1)C(=O)N/C1=C/CCCC[C@@H](C(=O)O)NC(=O)C2(CCCC2)CCNC1=O | 0.33 µM |
| N[C@@H](Cc1ccc(O)cc1)C(=O)N[C@H]1CSSC[C@@H](C(=O)O)NC(=O)C2(CCCC2)CCNC1=O | 0.0005 µM |
| N[C@@H](Cc1ccc(O)cc1)C(=O)N/C1=C/CCC[C@@H](C(=O)O)NC(=O)C2(CCCC2)CCNC1=O | 0.16 µM |
| N[C@@H](Cc1ccc(O)cc1)C(=O)NC1CCCC[C@@H](C(=O)O)NC(=O)C2(CCCC2)CCNC1=O (stereo in doubt; 14a) | 0.044 µM |
| N[C@@H](Cc1ccc(O)cc1)C(=O)NC1CCCCC[C@@H](C(=O)O)NC(=O)C2(CCCC2)CCNC1=O (stereo in doubt; 14b) | 0.55 µM |
| N[C@@H](Cc1ccc(O)cc1)C(=O)NC1CCCC[C@@H](C(=O)O)NC(=O)C2(CCCC2)CCNC1=O (stereo in doubt; 15a) | 0.089 µM |
| N[C@@H](Cc1ccc(O)cc1)C(=O)NC1CCCCC[C@@H](C(=O)O)NC(=O)C2(CCCC2)CCNC1=O (stereo in doubt; 15b) | 0.75 µM |

Source: ChEMBL document CHEMBL1132891, “Carbacyclic peptide mimetics as VCAM-VLA-4 antagonists” (Bioorg Med Chem Lett, 2000)
